According to PubChem BioAssay (NCI):
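The compound was tested at five concentrations on cells cultured in 96-well plates, with a 48-hour exposure period. GI50 is the concentration that inhibits growth by half. TGI denotes the concentration required for complete inhibition of growth.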

Experiments:
Assay in all cases: growth of human tumour cells (NCI), 48 h
[1] = tested on: K-562 leukemia
[2] = tested on: IGROV1 ovarian
[3] = tested on: LOX IMVI melanoma
[4] = tested on: NCI-H460 lung
[5] = tested on: UACC-257 melanoma
[6] = tested on: SR leukemia
[7] = tested on: CCRF-CEM leukemia
[8] = tested on: OVCAR-5 ovarian
[9] = tested on: HCT-116 colon
[10] = tested on: HT29 colon
[11] = tested on: TK-10 renal
[12] = tested on: SNB-75 CNS
[13] = tested on: EKVX NSCLC
[14] = tested on: SF-295 CNS
[15] = tested on: UO-31 renal
[16] = tested on: SK-OV-3 ovarian
[17] = tested on: MCF7 breast
[18] = tested on: U251 CNS
[19] = tested on: RXF 393 renal
[20] = tested on: SF-539 CNS
[21] = tested on: ACHN renal
[22] = tested on: HS 578T breast
[23] = tested on: UACC-62 melanoma
[24] = tested on: A498 renal
[25] = tested on: MDA-MB-231 breast
[26] = tested on: OVCAR-4 ovarian
[27] = tested on: MOLT-4 leukemia
[28] = tested on: SNB-19 CNS
[29] = tested on: 786-0 renal
[30] = tested on: HOP-62 NSCLC
[31] = tested on: T-47D breast
[32] = tested on: KM12 colon
[33] = tested on: SK-MEL-2 melanoma
[34] = tested on: SW-620 colon
[35] = tested on: HCT-15 colon
[36] = tested on: HOP-92 NSCLC
[37] = tested on: OVCAR-3 ovarian
[38] = tested on: HCC-2998 colon
[39] = tested on: HL-60(TB) leukemia
[40] = tested on: NCI-H522 lung
[41] = tested on: CAKI-1 renal
[42] = tested on: DU-145 prostate
[43] = tested on: SK-MEL-28 melanoma
[44] = tested on: RPMI-8226 leukemia
[45] = tested on: NCI-H23 lung
[46] = tested on: A549 NSCLC
[47] = tested on: MALME-3M melanoma
[48] = tested on: SN12C renal
[49] = tested on: PC-3 prostate
[50] = tested on: SF-268 CNS
[51] = tested on: BT-549 breast
[52] = tested on: SK-MEL-5 melanoma
[53] = tested on: OVCAR-8 ovarian
[54] = tested on: NCI-H226 lung
[55] = tested on: M14 melanoma
[56] = tested on: NCI/ADR-RES ovarian

## O=C(N/N=C/c1ccc(Br)s1)c1[nH]c2ccc(Br)cc2c1-c1ccccc1
[1]
  GI50: 327 nM
  TGI: > 100000 nM
[2]
  GI50: 983 nM
  TGI: > 39100 nM
[3]
  GI50: 312 nM
  TGI: 1350 nM
[4]
  GI50: 762 nM
  TGI: 8090 nM
[5]
  GI50: 1060 nM
  TGI: > 88300 nM
[6]
  GI50: 270 nM
  TGI: > 50100 nM
[7]
  GI50: 370 nM
  TGI: > 100000 nM
[8]
  GI50: 863 nM
  TGI: > 86100 nM
[9]
  GI50: 282 nM
  TGI: > 100000 nM
[10]
  GI50: 311 nM
  TGI: > 35800 nM
[11]
  GI50: 8830 nM
  TGI: > 82800 nM
[12]
  GI50: 843 nM
  TGI: 7950 nM
[13]
  GI50: 4920 nM
  TGI: > 100000 nM
[14]
  GI50: 907 nM
  TGI: 11000 nM
[15]
  GI50: 1400 nM
  TGI: > 100000 nM
[16]
  GI50: 4070 nM
  TGI: > 100000 nM
[17]
  GI50: 852 nM
  TGI: > 34500 nM
[18]
  GI50: 989 nM
  TGI: > 39900 nM
[19]
  GI50: 1270 nM
  TGI: 37300 nM
[20]
  GI50: 292 nM
  TGI: 1150 nM
[21]
  GI50: 903 nM
  TGI: > 45500 nM
[22]
  GI50: 791 nM
  TGI: 41900 nM
[23]
  GI50: 1030 nM
  TGI: > 46100 nM
[24]
  GI50: 35200 nM
  TGI: > 84100 nM
[25]
  GI50: 2310 nM
  TGI: > 100000 nM
[26]
  GI50: 1210 nM
  TGI: > 53000 nM
[27]
  GI50: 203 nM
  TGI: 38900 nM
[28]
  GI50: 1070 nM
  TGI: > 95700 nM
[29]
  GI50: 1260 nM
  TGI: > 100000 nM
[30]
  GI50: 1290 nM
  TGI: > 66900 nM
[31]
  GI50: 7050 nM
  TGI: > 100000 nM
[32]
  GI50: 1180 nM
  TGI: > 79600 nM
[33]
  GI50: 710 nM
  TGI: > 50400 nM
[34]
  GI50: 418 nM
  TGI: > 100000 nM
[35]
  GI50: 934 nM
  TGI: > 36200 nM
[36]
  GI50: 462 nM
  TGI: > 69100 nM
[37]
  GI50: 638 nM
  TGI: 38400 nM
[38]
  GI50: 1040 nM
  TGI: > 47400 nM
[39]
  GI50: < 48.4 nM
  TGI: 387 nM
[40]
  GI50: 89.8 nM
  TGI: 344 nM
[41]
  GI50: 1240 nM
  TGI: > 39000 nM
[42]
  GI50: 700 nM
  TGI: > 59800 nM
[43]
  GI50: 1720 nM
  TGI: > 88000 nM
[44]
  GI50: 377 nM
  TGI: > 62500 nM
[45]
  GI50: 895 nM
  TGI: > 51700 nM
[46]
  GI50: 1010 nM
  TGI: > 44000 nM
[47]
  GI50: 1310 nM
  TGI: > 68100 nM
[48]
  GI50: 547 nM
  TGI: > 38200 nM
[49]
  GI50: 386 nM
  TGI: > 52300 nM
[50]
  GI50: 1610 nM
  TGI: > 100000 nM
[51]
  GI50: 738 nM
  TGI: 2160 nM
[52]
  GI50: 675 nM
  TGI: 1520 nM
[53]
  GI50: 296 nM
  TGI: 1820 nM
[54]
  GI50: 826 nM
  TGI: > 37000 nM
[55]
  GI50: 1030 nM
  TGI: > 100000 nM
[56]
  GI50: 131 nM
  TGI: 7110 nM
